Results: publication PMC4581252, “Permeability Study of Polyphenols Derived from a Phenolic-Enriched Hibiscus sabdariffa Extract by UHPLC-ESI-UHR-Qq-TOF-MS” (International Journal of Molecular Sciences, 2015)

How the values were obtained:
Type in all cases: in vitro ADME, human
[1] = tested on: Caco-2 cell monolayer; experiment: Caco-2 permeability of encapsulated (liposome) PEHS extract: compounds detected in transport medium, cytoplasm and membrane; details: encapsulated PEHS 2500 μg/mL; for Compound detected in transport medium, Bas-Ap / Compound detected in transport medium, Ap-Bas: receiver chamber
Text: (§1) One of the aims of this study was to compare the intestinal absorption of HS compounds when the PEHS extract was in a free form or in an encapsulated formulation, using the Caco-2 model system. This model is a well-established in vitro model for the investigation of the intestinal permeability of different compounds or drugs. Prior to the transport studies, the Caco-2 cell monolayer was established and validated. Monolayer integrity and reliability were ensured by measuring the transepithelial electrical resistance (TEER) values, which remained stable during the assay with the experimental conditions assayed. Afterwards, samples from apical and basolateral compartments obtained at different time points and cytoplasmic and membrane fractions of the cell monolayer collected at the end of the assay (see Section 3.3 and Section 3.4) were analyzed by UHPLC-ESI-UHR-Qq-TOF-MS in order to identify which compounds crossed the Caco-2 cell monolayer.
Primary aqueous extract was obtained from sun-dried calyces from plants harvested in Senegal, with an approximate plant-to-extract ratio of 5:1 as previously described. The purified PEHS extract was kindly provided by Monteloeder, Inc. (Elche, Alicante, Spain) and was essentially prepared as previously described. The retained phenolic fraction was finally eluted with 95% ethanol and 0.01% trifluoroacetic acid (TFA), rotatory evaporated and freeze-dried. The PEHS encapsulated formulation was performed using empty liposomes, whose final concentration was 2 mM, adding soy phosphatidylcholine to the blend. To permeabilize the liposome membrane ethanol 10% was used. The extract was dissolved in HBSS at the desired concentration (2500 μg/mL), stirred for 10 min, and finally filtered through 0.45 μm three times (PVD filter).
(§2) To assess the potential intestinal absorption of PEHS and pure compounds, experiments were conducted using Caco-2 cells derived from human colorectal adenocarcinoma cells (obtained from the American Type Culture Collection). Cells were cultured in Dulbecco’s Modified Eagle Medium (DMEM) containing 10% (v/v) fetal bovine serum (FBS) and incubated at 37 °C in a humidified 5% CO2 air atmosphere. Cell monolayers were prepared by seeding 5 × 10^5 Caco-2cells/well on a six-well Transwell insert filter. Monolayers were used 19–22 days after seeding. The integrity of each cell monolayer was checked by measuring its transepithelial electrical resistance (TEER) with an epithelial voltohmmeter (EVOM, World Precision Instrument, Sarasota, FL, USA) before and after the experiments. The culture medium was replaced with fresh medium 24 h before the transport experiments. Compounds were added after washing the Caco-2 cell monolayer twice with pre-warmed HBSS medium (pH 7.4), in the apical or in the basolateral side, to evaluate the transport characteristics of the cells. Permeability studies were done by adding the PEHS solution at a concentration of 2500 μg/mL, quercetin at 18.1 μg/mL, quercetin-3-glucoside at 46.4 μg/mL, quercetin-3-glucuronide at 47.8 μg/mL, and N-feruloyltyramine at 31.3 μg/mL, while the receiving chamber contained the corresponding volume of transport medium. Samples were taken at different times (30, 60, 90, 120 min) and stored at −80 °C until their treatment.
(§3) After the permeation study, the Caco-2 cell monolayer was collected and the cells were lysed with three subsequent freezing-thawing cycles followed by bath sonication, of 10 min each step. Then, the samples were centrifuged during 15 min at 14,000 rpm and 4 °C, and the supernatants (cytoplasmic fraction) and the pellets (membranes) were stored at −80 °C.
(§4) The samples collected in the receiving chamber during the permeability assays were centrifuged for 15 min at 12,000 rpm and 4 °C. […] Finally, the samples were stored at −80 °C until the analysis, avoiding possible degradations.

[2] = tested on: Caco-2 cell monolayer; experiment: Caco-2 permeability of free PEHS extract: compounds detected in transport medium, cytoplasm and membrane; details: free PEHS 2500 μg/mL; for Compound detected in transport medium, Ap-Bas / Compound detected in transport medium, Bas-Ap: receiver chamber; for Compound detected in transport medium, Bas-Ap: basolateral to apical
Text: as §1, §2, §3, §4
(§5) The cytoplasms and cell membranes collected at the end of the permeability assays were subjected to protein precipitation using methanol, vortex-mixed, kept at −20 °C for 2 h and centrifuged at 12,000 rpm for 15 min at 4 °C. Finally, the supernatants were evaporated in a vacuum concentrator, dissolved in 100 μL of methanol, and then spiked with 10 μg/mL of apigenin, used as an internal standard for their analysis.
For the analysis of the samples, a Dionex Ultimate 3000 UHPLC (Thermo Scientific, Sunnyvale, CA, USA) was used coupled with an ultra-high resolution quadrupole time-of-flight mass spectrometer maXis (UHR-Qq-TOF-MS) from Bruker Daltonik (Bremen, Germany). The chromatographic separation was performed in a Zorbax Eclipse Plus C-18 column (4.6 × 150 mm, 1.8 μm) at a flow rate of 0.3 mL/min using an injection volume of 5 μL.

[3] = tested on: Caco-2 cell monolayer; experiment: Caco-2 permeation of pure compounds related to PEHS (individual permeability assays); details: for Concentration in the receptor chamber, Basolateral-Apical Flux: 30 min (so in the source); for Concentration in the receptor chamber, Basolateral-Apical Flux / Concentration in the receptor chamber, Apical-Basolateral Flux: donor: quercetin 18.1, quercetin-3-glucoside 46.4, quercetin-3-glucuronide 47.8, N-feruloyltyramine 31.3 μg/mL, X ± SD; for Absorption across the Caco-2 intestinal barrier model (in words): pure compounds
Method: Standard calibration curves of the compounds under study were prepared using apigenin at a concentration of 10 μg/mL as an internal standard. […] The limits of detection (LODs) and limits of quantification (LOQs) for individual compounds in standard solutions were also calculated as S/N = 3 and S/N = 10, respectively, where S/N is the signal to noise ratio (Table 3). The compound concentrations were subsequently determined using the corrected area of each individual compound (three replicates) and by interpolation in the corresponding calibration curve. Repeatability of the proposed method was measured as the relative standard deviation (RSD, %) in terms of concentration. A mixed solution containing the analytes was injected several times (n = 3) on the same day (intraday precision) and three times on three consecutive days (interday precision, n = 9). Intraday repeatability of the method developed for all the analytes was from 0.11% to 1.93%, whereas the interday repeatability ranged from 0.17% to 2.06%.
as §2, §3
The samples collected in the receiving chamber during the permeability assays were centrifuged for 15 min at 12,000 rpm and 4 °C. The supernatant was spiked with apigenin stock solution, used as an internal standard at a concentration of 10 μg/mL, in order to avoid irreproducibility of results between analyses. Finally, the samples were stored at −80 °C until the analysis, avoiding possible degradations.
as §5
For the analysis of the samples, a Dionex Ultimate 3000 UHPLC (Thermo Scientific, Sunnyvale, CA, USA) was used coupled with an ultra-high resolution quadrupole time-of-flight mass spectrometer maXis (UHR-Qq-TOF-MS) from Bruker Daltonik (Bremen, Germany). […]

[4] = membrane fraction at end of assay, basolateral to apical
[5] = cytoplasmic fraction at end of assay, apical to basolateral
[6] = membrane fraction at end of assay, apical to basolateral

Compound: O=C(/C=C/c1ccc(O)c(O)c1)O[C@@H]1CC(C(=O)O)=C[C@@H](O)[C@H]1O [5-O-caffeoylshikimic acid]
- Compound detected in transport medium, Bas-Ap ([1]; basolateral to apical): +
- Compound detected in transport medium, Ap-Bas ([2]; apical to basolateral): +
- Compound detected in transport medium, Bas-Ap [2]: +

Compound: O=C(/C=C/c1ccc(O)cc1)O[C@@H]1C[C@](O)(C(=O)O)C[C@@H](O)[C@H]1O [Coumaroylquinic acid]
- Compound detected in membrane, Bas-Ap [1, 4]: +
- Compound detected in transport medium, Bas-Ap [2]: +

Compound: O=C(/C=C/c1ccc(O)c(O)c1)O[C@H]1[C@H](O)C[C@](O)(C(=O)O)C[C@H]1O [Cryptochlorogenic acid]
- Compound detected in cytoplasm, Ap-Bas [1, 5]: +
- Compound detected in cytoplasm, Bas-Ap ([1]; cytoplasmic fraction at end of assay, basolateral to apical): +
- Compound detected in transport medium, Ap-Bas ([1]; apical to basolateral): +
- Compound detected in transport medium, Bas-Ap ([1]; basolateral to apical): +
- Compound detected in transport medium, Ap-Bas ([2]; apical to basolateral): +
- Compound detected in transport medium, Bas-Ap [2]: +

Compound: COC(=O)C1OC(=O)CC1(O)C(=O)OC (stereo not drawn) [Hibiscus acid dimethylesther]
- Compound detected in cytoplasm, Ap-Bas [1, 5]: +
- Compound detected in membrane, Ap-Bas [1, 6]: +
- Compound detected in membrane, Bas-Ap [1, 4]: +

Compound: O=C1C[C@](O)(C(=O)O)[C@@H](C(=O)O)O1 [Hibiscus acid]
- Compound detected in cytoplasm, Ap-Bas [1, 5]: +

Compound: COC(=O)c1cc(O)c(O)c(OC(=O)c2cc(O)c(O)c(O)c2)c1 [Methyldigallate, Methyl digallate]
- Compound detected in cytoplasm, Ap-Bas [1, 5]: +
- Compound detected in transport medium, Bas-Ap ([1]; basolateral to apical): +
- Compound detected in transport medium, Bas-Ap [2]: +

Compound: COc1cc(/C=C/C(=O)NCCc2ccc(O)cc2)ccc1O [N-feruloyltyramine]
- Compound detected in transport medium, Ap-Bas ([1]; apical to basolateral): +
- Compound detected in transport medium, Bas-Ap ([1]; basolateral to apical): +
- Concentration in the receptor chamber, Basolateral-Apical Flux [3]: 1350 ± 40 ng/mL
- Concentration in the receptor chamber, Apical-Basolateral Flux ([3]; 30 min): 690 ± 20 ng/mL
- Concentration in the receptor chamber, Apical-Basolateral Flux ([3]; 60 min): 2300 ± 200 ng/mL
- Concentration in the receptor chamber, Apical-Basolateral Flux ([3]; 90 min): 4200 ± 500 ng/mL
- Concentration in the receptor chamber, Apical-Basolateral Flux ([3]; 120 min): 6600 ± 800 ng/mL
- Absorption across the Caco-2 intestinal barrier model (in words) [3]: significant absorption
- Compound detected in transport medium, Ap-Bas ([2]; apical to basolateral): +
- Compound detected in transport medium, Bas-Ap [2]: +

Compound: O=c1c(O[C@@H]2O[C@H](CO)[C@@H](O)[C@H](O)[C@H]2O)c(-c2ccc(O)c(O)c2)oc2cc(O)cc(O)c12 [Quercetin-3-glucoside]
- Concentration in the receptor chamber, Basolateral-Apical Flux [3]: <LOQ
- Concentration in the receptor chamber, Apical-Basolateral Flux ([3]; 30 min): <LOQ
- Concentration in the receptor chamber, Apical-Basolateral Flux ([3]; 60 min): <LOQ
- Concentration in the receptor chamber, Apical-Basolateral Flux ([3]; 90 min): <LOQ
- Concentration in the receptor chamber, Apical-Basolateral Flux ([3]; 120 min): 470 ± 30 ng/mL
- Absorption across the Caco-2 intestinal barrier model (in words) [3]: lesser extent

Compound: O=C(O)[C@H]1O[C@@H](Oc2c(-c3ccc(O)c(O)c3)oc3cc(O)cc(O)c3c2=O)[C@H](O)[C@@H](O)[C@@H]1O [Quercetin-3-glucuronide]
- Concentration in the receptor chamber, Basolateral-Apical Flux [3]: <LOQ
- Concentration in the receptor chamber, Apical-Basolateral Flux ([3]; 30 min): not detected
- Concentration in the receptor chamber, Apical-Basolateral Flux ([3]; 60 min): not detected
- Concentration in the receptor chamber, Apical-Basolateral Flux ([3]; 90 min): not detected
- Concentration in the receptor chamber, Apical-Basolateral Flux ([3]; 120 min): <LOQ
- Absorption across the Caco-2 intestinal barrier model (in words) [3]: lesser extent

Compound: O=c1c(O)c(-c2ccc(O)c(O)c2)oc2cc(O)cc(O)c12 [Quercetin]
- Compound detected in cytoplasm, Ap-Bas [1, 5]: +
- Concentration in the receptor chamber, Basolateral-Apical Flux [3]: 1100 ± 400 ng/mL
- Concentration in the receptor chamber, Apical-Basolateral Flux ([3]; 30 min): 280 ± 20 ng/mL
- Concentration in the receptor chamber, Apical-Basolateral Flux ([3]; 60 min): 490 ± 30 ng/mL
- Concentration in the receptor chamber, Apical-Basolateral Flux ([3]; 90 min): 1330 ± 20 ng/mL
- Concentration in the receptor chamber, Apical-Basolateral Flux ([3]; 120 min): 1320 ± 10 ng/mL
- Time at which maximum permeation / maximum concentration was reached ([3]; both flux directions, sampling at 30, 60, 90, 120 min): 90 min
- Final concentration in the basolateral-apical flux relative to the opposite flux ([3]; end of assay): around five-fold
- Absorption across the Caco-2 intestinal barrier model (in words) [3]: significant absorption
- Compound detected in cytoplasm, Ap-Bas [2, 5]: +
- Compound detected in membrane, Ap-Bas [2, 6]: +
- Compound detected in transport medium, Ap-Bas ([2]; apical to basolateral): +
- Compound detected in transport medium, Bas-Ap [2]: +

Compound: Methylepigallocatechin
- Compound detected in transport medium, Bas-Ap [2]: +
